In patent US20220125746A1, “METHOD OF PREVENTING OR TREATING TREATMENT-INDUCED GASTROINTESTINAL INJURY” (priority 2019, published 2022):
Counter-ions that a name gives are not always drawn.

Assays:
[1] = test system: colon cancer cell line DLD1; test: PUMA-induced apoptosis inhibition in DLD1
Experimental: PUMAi was added to cells at 25 uM at the same time as CPT.

[2] = test system: colon cancer cell lines HCT 116, p53 KO, HT29, SW480, DLD1, PUMA KO; test: CPT-induced apoptosis in colon cancer cell lines (nuclear fragmentation assay); assay type: cell-based, human; details: CPT 500 nM 24 h, PUMAi 25 uM; p53 WT, null, mutant or PUMA null lines
Experimental: (FIG. 10A) Structure of the PUMA inhibitor lead compound (PUMAi). (FIG. 10B) Lysates of 293 cells transfected with individual plasmids for 24 hours were mixed in the indicated combinations. Lysates were incubated with vehicle or PUMA inhibitor (PUMAi, 25 μM) for 15 min before immunoprecipitation with an anti-HA antibody. The HA-bound proteins and input were analyzed by western blotting. (FIG. 10C) Lysates of 293 cells transfected with individual plasmids for 24 h were mixed in the indicated combinations. Lysates were incubated with vehicle or PUMA Inhibitor (PUMAi, 25 μM) for 15 min before immunoprecipitation with an anti-HA antibody. The HA-bound proteins and input were analyzed by western blotting. (FIG. 10D) Indicated colon cancer cell lines were treated with camptothecin (CPT, 500 nM) for 24 h. […] Apoptosis was measured by nuclear fragmentation assay. […] (FIG. 10E) Cells were treated as in D for 24 h and analyzed by western blotting. […]
After treatment, floating and adhering cells were collected and stained in a solution containing 3.7% formaldehyde, 0.5% NP-40, and Hoechst 33258 (10 ug/ml) (Molecular Probes) in PBS. Apoptosis was assessed through microscopic visualization of condensed and fragmented nuclei, as previously described (Yu J. et al., Proc Natl Acad Sci USA (2003) 100:1931-36, incorporated herein by reference). A minimum of 300 cells per treatment were analyzed in triplicate. […]

[3] = PUMAi distribution in intestinal mucosa and plasma (LC-MS/MS); assay type: in vivo, mouse; details: for PUMAi concentration in intestinal mucosa compared to -1.5 hours: 10 mg/kg i.p.
Experimental: Acetonitrile and water (all HPLC grade) were purchased from Fisher Scientific. Formic acid and trifluoroacetic acid was purchased from Sigma-Aldrich. Stock solutions of PUMAi and [D5]-PUMAi internal standard were prepared at 1 mg/mL in DMSO, diluted 10 times in acetonitrile, and then stored at −80° C. On the day of the assay, the solution was serially diluted (in 10-fold steps) in acetonitrile to obtain the lower calibration working solutions of 0.01 and 0.001 mg/mL. These calibration working solutions were diluted in mouse plasma (Lampire Biological Laboratories, Inc.) to produce the following analyte concentrations: 10, 30, 50, 100, 300, 500, 1000, 3000 ng/mL. For each calibration series, zero (containing 10 ng/mL of internal standard) and blank samples were also prepared from 50 μL of Lampire plasma. Quality control (QC) stock solutions were diluted in Lampire mouse plasma to produce the following QC samples: QC Low (QCL) 20 ng/mL; QC Mid (QCM) 200 ng/mL, and QC High (QCH) 2500 ng/mL.
To extract PUMAi, we added 10 μL of internal standard solution (1000 ng/mL [D5]-PUMAi in acetonitrile) to 50 μL of plasma sample in a micro centrifuge tube. […]
The mass spectrometer was operated in ESI positive mode using MRM detection. […] The mass transitions monitored were m/z 331>143 for PUMAi and 345>157 for the internal standard.
To assess recovery from plasma, we compared areas from control plasma spiked with 1000 ng/mL of PUMAi, prepared as described above, with the areas obtained with a neat solution of PUMAi in water. Intestinal mucosa was analyzed after dilution in control plasma to within the calibration range. […]
PUMAi {1-[4-(2-hydroxyethyl)-1-piperazinyl]-3-(2-naphthyloxy)-2-propanol dihydrochloride} was synthesized by ChemBridge, with a purity of 95% by HPLC-MS, and an internal isotopic standard PUMAih7 (D5, five internal hydrogens replaced by deuterium) was synthesized by Alsachim, with purity approaching 100% by HPLC-MS. […] Detailed methods on LC-MS/MS (liquid chromatography-tandem MS) quantitation of PUMAi are found in Supplementary Materials and Methods.

OCCN1CCN(CC(O)COc2ccc3ccccc3c2)CC1 (centres unmarked) [PUMAi, 1-[4-(2-hydroxyethyl)-1-piperazinyl]-3-(2-naphthyloxy)-2-propanol dihydrochloride]
Apoptosis inhibition of DLD1 [1]: 39%
camptothecin (CPT)-induced apoptosis in colon cancer cell lines [2]: did not reduce camptothecin (CPT)-induced apoptosis
PUMAi concentration in intestinal mucosa compared to -1.5 hours ([3]; +1 hour of CPT-11 administration): 67%
PUMAi concentration in intestinal mucosa compared to -1.5 hours ([3]; +6 hours of CPT-11 administration): 30%
PUMAi concentration in plasma over time ([3]; -1.5, +1, +6 hours, compared with intestinal mucosa): dropped more quickly in the plasma
